Measured values published in patent publication US4698352A, “4-oxo-1,4-dihydronicotinic acid derivatives, salts thereof, and antibacterial agents containing the same” (Toyama Chemical Co., Ltd., priority 1982, dated 1987).
Converted amounts (≈) assume the structure as drawn. Like-named read-outs stand apart in the source and are kept apart here.

How the values were obtained:
Assay in all cases: Antibacterial activity (MIC), agar dilution
Format in all cases: cell-based
[1] = system: Ps. aeruginosa GN3379*; details: Pseudomonas aeruginosa, 20 h; Ps. aeruginosa GN3379, penicillinase-producing; 10^6 cells per ml; read-out: MIC
Excerpt: (§1) The amount of bacteria inoculated was 10^4 cells per plate (10^6 cells per ml).
(§2) * Penicillinase-producing bacteria

[2] = system: Kl. pneumoniae Y-4*; details: Klebsiella pneumoniae, 20 h, Kl. pneumoniae Y-4, penicillinase-producing; 10^6 cells per ml; read-out: MIC
Excerpt: as §1, §2

[3] = system: St. aureus F-137*; details: Staphylococcus aureus, 20 h
Excerpt: as §1, §2

[4] = system: E. coli TK-3*; details: Escherichia coli, 20 h
Excerpt: as §1, §2

[5] = system: Ps. aeruginosa GN918**; details: Ps. aeruginosa GN918, cephalospolinase-producing, 10^6 cells per ml
Excerpt: as §1
(§3) ** Cephalospolinase-producing bacteria

[6] = system: E. coli GN5482**; details: Escherichia coli, 20 h; E. coli GN5482, cephalospolinase-producing; 10^6 cells per ml; read-out: MIC
Excerpt: as §1, §3

[7] = system: Pro. vulgaris GN76**; details: Proteus vulgaris
Excerpt: as §1, §3

[8] = system: Pro. mirabilis T-111; details: Proteus mirabilis, 37° C.
Excerpt: as §1

[9] = system: Ps. aeruginosa S-68; details: Pseudomonas aeruginosa
Excerpt: as §1

[10] = system: Pro. vulgaris GN3027; details: Proteus vulgaris, GN3027, 20 h, Pro. vulgaris GN3027; 10^6 cells per ml; 37° C., 20 hours; read-out: MIC
Excerpt: as §1

[11] = system: Pro. morganii T-216; details: Morganella morganii, 37° C.
Excerpt: as §1

[12] = system: St. aureus FDA209P; details: Staphylococcus aureus, FDA209P, 20 h
Excerpt: as §1

[13] = system: Ent. cloacae IID977; details: Enterobacter cloacae, IID977, 20 h
Excerpt: as §1

[14] = system: Ps. aeruginosa IFO3445; details: Pseudomonas aeruginosa; Ps. aeruginosa IFO3445; 10^6 cells per ml; 37° C., 20 hours; read-out: MIC
Excerpt: as §1

[15] = system: Kl. pneumoniae Y-50; details: Klebsiella pneumoniae, Y50, 20 h, 10^6 cells per ml, 37° C., read-out: MIC
Excerpt: as §1

[16] = system: Kl. pneumoniae Y-41; details: Klebsiella pneumoniae, Y41, 10^6 cells per ml, 37° C., 20 hours, read-out: MIC
Excerpt: as §1

[17] = system: E. coli TK-111; details: Escherichia coli, TK111, 20 h, E. coli TK-111; 10^6 cells per ml; 37° C., 20 hours; read-out: MIC
Excerpt: as §1

[18] = system: E. coli NIHJ JC-2; details: Escherichia coli, NIHJJC2, 20 h
Excerpt: as §1

[19] = system: Aci. antitratus A-6; details: 20 h, Aci. antitratus A-6; 10^6 cells per ml; 37° C., 20 hours; read-out: MIC
Excerpt: as §1

[20] = St. aureus F-137, penicillinase-producing, 10^6 cells per ml, read-out: MIC
[21] = E. coli TK-3, penicillinase-producing, 10^6 cells per ml, read-out: MIC
[22] = 20 h, Pro. vulgaris GN76, cephalospolinase-producing, 10^6 cells per ml, read-out: MIC
[23] = S68, Ps. aeruginosa S-68, 10^6 cells per ml, 37° C., 20 hours, read-out: MIC
[24] = St. aureus FDA209P, 10^6 cells per ml, 37° C., 20 hours, read-out: MIC
[25] = Ent. cloacae IID977, 10^6 cells per ml, 37° C., 20 hours, read-out: MIC
[26] = E. coli NIHJ JC-2, 10^6 cells per ml, 37° C., 20 hours, read-out: MIC
[27] = Pseudomonas aeruginosa, 20 h, read-out: MIC
[28] = T111, 10^6 cells per ml, 20 hours, read-out: MIC

SMILES	MIC [1] [µg/mL]	MIC [2] [µg/mL]	MIC [3, 20] [µg/mL]	MIC [4, 21] [µg/mL]	MIC [6] [µg/mL]	MIC [7, 22] [µg/mL]	MIC ([8]; T111, 20 h, 10^6 cells per ml) [µg/mL]	MIC [9, 23] [µg/mL]	MIC [10] [µg/mL]	MIC ([11]; T216, 20 h, 10^6 cells per ml) [µg/mL]	MIC [12, 24] [µg/mL]	MIC [13, 25] [µg/mL]	MIC [14] [µg/mL]	MIC [15] [µg/mL]	MIC [16] [µg/mL]	MIC [17] [µg/mL]	MIC [18, 26] [µg/mL]	MIC [19] [µg/mL]	MIC [5, 27] [µg/mL]	MIC [8, 28] [µg/mL]	also measured
Cc1cc(O)ccc1-n1cc(C(=O)O)c(=O)cc1C1CCCC1	25 (≈ 79.8 µM)	6.25 (≈ 19.9 µM)	0.39 (≈ 1.24 µM)	1.56 (≈ 4.98 µM)	0.2 (≈ 0.638 µM)	0.78 (≈ 2.49 µM)	3.13 (≈ 9.99 µM)	12.5 (≈ 39.9 µM)	≤ 0.05	3.13 (≈ 9.99 µM)	0.78 (≈ 2.49 µM)	1.56 (≈ 4.98 µM)	12.5 (≈ 39.9 µM)	0.78 (≈ 2.49 µM)	3.13 (≈ 9.99 µM)	0.39 (≈ 1.24 µM)	0.78 (≈ 2.49 µM)	0.78 (≈ 2.49 µM)	–	–	MIC ([5]; Pseudomonas aeruginosa, GN918, 20 h): 3.13 µg/mL (≈ 9.99 µM)
O=C(O)c1cn(-c2ccc(F)cc2)c(-c2ccc(N=Cc3ccc([N+](=O)[O-])o3)cc2)cc1=O	50 (≈ 112 µM)	25 (≈ 55.9 µM)	–	3.13 (≈ 7 µM)	0.39 (≈ 0.872 µM)	–	–	25 (≈ 55.9 µM)	0.39 (≈ 0.872 µM)	–	–	–	25 (≈ 55.9 µM)	1.56 (≈ 3.49 µM)	6.25 (≈ 14 µM)	0.78 (≈ 1.74 µM)	–	3.13 (≈ 7 µM)	25 (≈ 55.9 µM)	12.5 (≈ 27.9 µM)	MIC [3]: 6.25 µg/mL (≈ 14 µM); MIC ([7]; GN76, 20 h): 1.56 µg/mL (≈ 3.49 µM); MIC ([11]; T216, 10^6 cells per ml, 20 hours, read-out: MIC): 3.13 µg/mL (≈ 7 µM); MIC [12]: 6.25 µg/mL (≈ 14 µM); MIC [13]: 6.25 µg/mL (≈ 14 µM); MIC [18]: 1.56 µg/mL (≈ 3.49 µM)
O=C(O)c1cn(-c2ccc(F)cc2)c(C=Cc2ccncc2)cc1=O	25 (≈ 74.3 µM)	6.25 (≈ 18.6 µM)	12.5 (≈ 37.2 µM)	1.56 (≈ 4.64 µM)	0.2 (≈ 0.595 µM)	0.78 (≈ 2.32 µM)	–	12.5 (≈ 37.2 µM)	0.2 (≈ 0.595 µM)	6.25 (≈ 18.6 µM)	12.5 (≈ 37.2 µM)	3.13 (≈ 9.31 µM)	50 (≈ 149 µM)	0.78 (≈ 2.32 µM)	6.25 (≈ 18.6 µM)	0.39 (≈ 1.16 µM)	12.5 (≈ 37.2 µM)	12.5 (≈ 37.2 µM)	25 (≈ 74.3 µM)	12.5 (≈ 37.2 µM)	–
Nc1ccc(-c2cc(=O)c(C(=O)O)cn2-c2ccc(O)cc2)cc1	25 (≈ 77.6 µM)	12.5 (≈ 38.8 µM)	6.25 (≈ 19.4 µM)	–	0.1 (≈ 0.31 µM)	1.56 (≈ 4.84 µM)	–	25 (≈ 77.6 µM)	0.39 (≈ 1.21 µM)	3.13 (≈ 9.71 µM)	–	–	25 (≈ 77.6 µM)	3.13 (≈ 9.71 µM)	12.5 (≈ 38.8 µM)	0.78 (≈ 2.42 µM)	–	25 (≈ 77.6 µM)	25 (≈ 77.6 µM)	25 (≈ 77.6 µM)	MIC [4]: 3.13 µg/mL (≈ 9.71 µM); MIC [12]: 3.13 µg/mL (≈ 9.71 µM); MIC [13]: 12.5 µg/mL (≈ 38.8 µM); MIC [18]: 3.13 µg/mL (≈ 9.71 µM)
Cc1cc(O)ccc1-n1cc(C(=O)O)c(=O)cc1C1CCCCC1 [drawing 12]	> 100	12.5 (≈ 38.2 µM)	0.78 (≈ 2.38 µM)	3.13 (≈ 9.56 µM)	0.1 (≈ 0.305 µM)	3.13 (≈ 9.56 µM)	12.5 (≈ 38.2 µM)	50 (≈ 153 µM)	0.2 (≈ 0.611 µM)	6.25 (≈ 19.1 µM)	0.78 (≈ 2.38 µM)	3.13 (≈ 9.56 µM)	50 (≈ 153 µM)	1.56 (≈ 4.77 µM)	6.25 (≈ 19.1 µM)	0.78 (≈ 2.38 µM)	–	0.78 (≈ 2.38 µM)	3.13 (≈ 9.56 µM)	–	MIC [18]: 1.56 µg/mL (≈ 4.77 µM)
CC(=O)Oc1ccc(-n2cc(C(=O)OCCN(C)C)c(=O)cc2-c2ccc(N(C)C)cc2)cc1 [drawing 37]	12.5 (≈ 27 µM)	6.25 (≈ 13.5 µM)	0.39 (≈ 0.841 µM)	1.56 (≈ 3.37 µM)	≤ 0.05	1.56 (≈ 3.37 µM)	6.25 (≈ 13.5 µM)	–	0.39 (≈ 0.841 µM)	3.13 (≈ 6.75 µM)	0.39 (≈ 0.841 µM)	1.56 (≈ 3.37 µM)	12.5 (≈ 27 µM)	0.78 (≈ 1.68 µM)	3.13 (≈ 6.75 µM)	0.2 (≈ 0.431 µM)	0.39 (≈ 0.841 µM)	0.39 (≈ 0.841 µM)	–	–	MIC [5]: 3.13 µg/mL (≈ 6.75 µM); MIC ([9]; S68, 20 h): 6.25 µg/mL (≈ 13.5 µM)
